The text below walks through data of patent publication US20260053171A1, “METHANOGEN INHIBITORS” (AGRIZERONZ LIMITED PARTNERSHIP, priority 2022, published 2026).

A value given as a limit tells only on which side of the number the result lay.

In the assay the test system is methane production in rumen fluid. The assay is described as follows: Rumen in vitro (RIV) assay, methane production from rumen fluid incubations. Format: cell-based, cattle. The note with it: for inhibition at 10 µM / inhibition at 50 µM / inhibition at 2 µM: Bos taurus, read-out: RIV % methane reduction +/− SD. In a few lines:
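Rumen fluid from two fistulated cattle diluted 12 ml in 48 ml buffer with ryegrass substrate, incubated in sealed bottles at 39° C for 24-48 h in duplicate. Inhibitors added in DMF (stocks 1000-fold above highest assay level); total gas, methane and H2 measured automatically; 30 μM BES positive control, no-inhibitor negative control.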

`O=C(O)CCC(=O)N1N=C(c2ccc(-c3ccc4c(c3)OC(F)(F)O4)cc2)CC1c1ccc2nccnc2c1` (stereo not shown) [Compound 104, 4-(3-(4-(2,2-Difluorobenzo[d][1,3]dioxol-5-yl)phenyl)-5-(quinoxalin-6-yl)-4,5-dihydro-1H-pyrazol-1-yl)-4-oxobutanoic acid]: the inhibition at 10 µM (10 μM) worked out at 41.9 ± 8.9%.

In the case of `O=C(O)CCC(=O)N1N=C(c2ccc(-c3ccc4[nH]ccc4c3)cc2)CC1c1ccc2nccnc2c1` (stereo not shown) [Compound 106, 4-(3-(4-(1H-Indol-5-yl)phenyl)-5-(quinoxalin-6-yl)-4,5-dihydro-1H-pyrazol-1-yl)-4-oxobutanoic acid], the inhibition at 10 µM (10 μM) is < 5%. Where the note is “50 μM”, the inhibition at 50 µM came to 26 ± 2.5%. Take `CC(C)Oc1ccc(-c2ccc(C3=NN(C(=O)CCC(=O)O)C(c4ccc5nccnc5c4)C3)cc2)cn1` (stereo not shown) [Compound 107, 4-(3-(4-(6-Isopropoxypyridin-3-yl)phenyl)-5-(quinoxalin-6-yl)-4,5-dihydro-1H-pyrazol-1-yl)-4-oxobutanoic acid]: the inhibition at 10 µM (10 μM) turned out to be 33.4 ± 2.1%.

`O=C(O)CCC(=O)N1N=C(c2ccc(-c3ccoc3)cc2)CC1c1ccc2nccnc2c1` (stereo not shown) [Compound 108, 4-(3-(4-(Furan-3-yl)phenyl)-5-(quinoxalin-6-yl)-4,5-dihydro-1H-pyrazol-1-yl)-4-oxobutanoic acid]: the inhibition at 10 µM (10 μM) came out at 6.3 ± 6.1%. The inhibition at 50 µM (50 μM) turned out to be 48.3 ± 2.8%. Turning to `O=C(O)CCC(=O)N1N=C(c2ccc(-c3ccccc3)cc2F)CC1c1ccc2nccnc2c1` (stereo not shown) [Compound 109, 4-(3-(3-Fluoro-[1,1′-biphenyl]-4-yl)-5-(quinoxalin-6-yl)-4,5-dihydro-1H-pyrazol-1-yl)-4-oxobutanoic acid], where the note is “10 μM”, the inhibition at 10 µM worked out at 40.4 ± 8.1%. Same read-out and setting: the figure for `O=C(O)CCC(=O)N1N=C(c2ccc(-c3ccccc3)c(F)c2)CC1c1ccc2nccnc2c1` (stereo not shown) [Compound 110, 4-(3-(2-Fluoro-[1,1′-biphenyl]-4-yl)-5-(quinoxalin-6-yl)-4,5-dihydro-1H-pyrazol-1-yl)-4-oxobutanoic acid] is 40.4 ± 7.6%; for `O=C(O)CCC(=O)N1N=C(c2ccc(-c3ccccc3)cc2)CC1c1ccc2nonc2c1` (stereo not shown) [Compound 111, 4-(3-([1,1′-Biphenyl]-4-yl)-5-(benzo[c][1,2,5]oxadiazol-5-yl)-4,5-dihydro-1H-pyrazol-1-yl)-4-oxobutanoic acid] it is 43.3 ± 9%. For `O=C(O)CCC(=O)N1N=C(c2ccc(Cl)cc2)CC1c1ccc(F)c(F)c1` (stereo not shown) [Compound 112, 4-(3-(4-Chlorophenyl)-5-(3,4-difluorophenyl)-4,5-dihydro-1H-pyrazol-1-yl)-4-oxobutanoic acid], the inhibition at 50 µM (50 μM) came to 21.7 ± 0.9%.

Regarding `NC(=O)CCC(=O)N1N=C(c2ccc(Cl)cc2)CC1c1ccc2nccnc2c1` (stereo not shown) [Compound 113, 4-(3-(4-Chlorophenyl)-5-(quinoxalin-6-yl)-4,5-dihydro-1H-pyrazol-1-yl)-4-oxobutanamide], the inhibition at 50 µM (50 μM) was determined as 15.6 ± 0.4%. As to `O=C(O)c1cccc(N2N=C(c3cccc(-c4ccccc4)c3)CC2c2ccc3nccnc3c2)c1` (stereo not shown) [Compound 114, 3-(3-([1,1′-Biphenyl]-3-yl)-5-(quinoxalin-6-yl)-4,5-dihydro-1H-pyrazol-1-yl)benzoic acid], the inhibition at 10 µM (10 μM) is 58.3 ± 16.6%. Consider `O=C(O)c1ccc(N2N=C(c3ccc(Cl)cc3)CC2c2ccc3nccnc3c2)cc1` (stereo not shown) [Compound 115, 4-(3-(4-Chlorophenyl)-5-(quinoxalin-6-yl)-4,5-dihydro-1H-pyrazol-1-yl)benzoic acid], for which the inhibition at 10 µM (10 μM) is 20.1 ± 1.1%. Further, for the setting “50 μM”, the inhibition at 50 µM was determined as 84 ± 10.6%. As to `CS(=O)(=O)NC(=O)CCC(=O)N1N=C(c2ccc(OC(F)(F)F)cc2)CC1c1ccc2nccnc2c1` (stereo not shown) [Compound 116, N-(Methylsulfonyl)-4-oxo-4-(5-(quinoxalin-6-yl)-3-(4-(trifluoromethoxy)phenyl)-4,5-dihydro-1H-pyrazol-1-yl) butanamide], the “RIV % methane reduction +/− SD” value reads like this: (2 μM) <5%; (10 μM) 72.4 ± 10.6%; (50 μM) 93.9 ± 4.7%. In the case of `CC(C)Oc1ccc(-c2ccc(C3=NN(C(=O)CCC(=O)NS(C)(=O)=O)C(c4ccc5nccnc5c4)C3)cc2)cc1` (stereo not shown) [Compound 117, 4-(3-(4′-Isopropoxy-[1,1′-biphenyl]-4-yl)-5-(quinoxalin-6-yl)-4,5-dihydro-1H-pyrazol-1-yl)-N-(methylsulfonyl)-4-oxobutanamide], under “2 μM”, the inhibition at 2 µM was found to be 9.1 ± 2.4%. Also, the inhibition at 10 µM (10 μM) came out at 72.5 ± 4%. Turning to `CC(C)S(=O)(=O)NC(=O)CCC(=O)N1N=C(c2ccc(OC(F)(F)F)cc2)CC1c1ccc2nccnc2c1` (stereo not shown) [Compound 118, N-(Isopropylsulfonyl)-4-oxo-4-(5-(quinoxalin-6-yl)-3-(4-(trifluoromethoxy)phenyl)-4,5-dihydro-1H-pyrazol-1-yl) butanamide], the inhibition at 10 µM (10 μM) came out at 29.7 ± 6%. With `CC(C)S(=O)(=O)NC(=O)CCC(=O)N1N=C(c2cccc(-c3ccccc3)c2)CC1c1ccc2nccnc2c1` (stereo not shown) [Compound 119, 4-(3-([1,1′-Biphenyl]-3-yl)-5-(quinoxalin-6-yl)-4,5-dihydro-1H-pyrazol-1-yl)-N-(isopropylsulfonyl)-4-oxobutanamide], for the setting “2 μM”, the inhibition at 2 µM came out at 11.9 ± 2.7%. The inhibition at 10 µM (10 μM) amounted to 81.8 ± 2.7%. On the same counts, the results for `CC(C)Oc1ccc(-c2ccc(C3=NN(C(=O)CCC(=O)NS(=O)(=O)C(C)C)C(c4ccc5nccnc5c4)C3)cc2)cc1` (stereo not shown) [Compound 120, 4-(3-(4′-Isopropoxy-[1,1′-biphenyl]-4-yl)-5-(quinoxalin-6-yl)-4,5-dihydro-1H-pyrazol-1-yl)-N-(isopropylsulfonyl)-4-oxobutanamide] are 12.6 ± 1.4% and 70.4 ± 5.5%. As to `CC(C)(C)S(=O)(=O)NC(=O)CCC(=O)N1N=C(c2ccc(Cl)cc2)CC1c1ccc2nccnc2c1` (stereo not shown) [Compound 121, N-(tert-Butylsulfonyl)-4-(3-(4-chlorophenyl)-5-(quinoxalin-6-yl)-4,5-dihydro-1H-pyrazol-1-yl)-4-oxobutanamide], the inhibition at 10 µM (10 μM) came out at 9.8 ± 2.2%. As to `O=C(CCC(=O)N1N=C(c2cccc(-c3ccccc3)c2)CC1c1ccc2nccnc2c1)NS(=O)(=O)c1ccccc1` (stereo not shown) [Compound 122, 4-(3-([1,1′-Biphenyl]-3-yl)-5-(quinoxalin-6-yl)-4,5-dihydro-1H-pyrazol-1-yl)-4-oxo-N-(phenylsulfonyl) butanamide], where the note is “2 μM”, the inhibition at 2 µM was 7.4 ± 4.7%. The inhibition at 10 µM (10 μM) was found to be 78.9 ± 2.3%. With `O=C(CCC(=O)N1N=C(c2ccc(-c3ccccc3)cc2)CC1c1ccc2nccnc2c1)NS(=O)(=O)c1ccccc1` (stereo not shown) [Compound 123, 4-(3-([1,1′-Biphenyl]-4-yl)-5-(quinoxalin-6-yl)-4,5-dihydro-1H-pyrazol-1-yl)-4-oxo-N-(phenylsulfonyl) butanamide], the inhibition at 2 µM (2 μM) came to 7.4 ± 0.7%. Moreover, under “10 μM”, the inhibition at 10 µM was determined as 77 ± 4.2%. On to `Cc1ccccc1S(=O)(=O)NC(=O)CCC(=O)N1N=C(c2ccc(Cl)cc2)CC1c1ccc2nccnc2c1` (stereo not shown) [Compound 124, 4-(3-(4-Chlorophenyl)-5-(quinoxalin-6-yl)-4,5-dihydro-1H-pyrazol-1-yl)-4-oxo-N-(o-tolylsulfonyl) butanamide], for which the inhibition at 10 µM (10 μM) stood at 12.7 ± 0.8%.

For `Cc1ccc(S(=O)(=O)NC(=O)CCC(=O)N2N=C(c3ccc(Cl)cc3)CC2c2ccc3nccnc3c2)cc1` (stereo not shown) [Compound 125, 4-(3-(4-Chlorophenyl)-5-(quinoxalin-6-yl)-4,5-dihydro-1H-pyrazol-1-yl)-4-oxo-N-tosylbutanamide], the inhibition at 10 µM (10 μM) was determined as 21.8 ± 5.7%.
